# Experimental data: PubChem BioAssay (NCI)
#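 Grown in 96-well plates, cells were treated for 48 hours with each compound at five concentrations. Insufficient inhibition: endpoint recorded as highest concentration tested. GI50: concentration for 50% inhibition of growth. TGI is the concentration that stops growth completely.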
# How the values were obtained:
# Experiment in all cases: NCI anticancer screen, dose series, 48 h
# 786-0 renal = tested on: 786-0 renal
# A498 renal = tested on: A498 renal
# A549 NSCLC = tested on: A549 NSCLC
# ACHN renal = tested on: ACHN renal
# BT-549 breast = tested on: BT-549 breast
# CAKI-1 renal = tested on: CAKI-1 renal
# DU-145 prostate = tested on: DU-145 prostate
# EKVX NSCLC = tested on: EKVX NSCLC
# HCC-2998 colon = tested on: HCC-2998 colon
# HCT-116 colon = tested on: HCT-116 colon
# HCT-15 colon = tested on: HCT-15 colon
# HL-60(TB) leukemia = tested on: HL-60(TB) leukemia
# HOP-62 NSCLC = tested on: HOP-62 NSCLC
# HOP-92 NSCLC = tested on: HOP-92 NSCLC
# HS 578T breast = tested on: HS 578T breast
# IGROV1 ovarian = tested on: IGROV1 ovarian
# KM12 colon = tested on: KM12 colon
# LOX IMVI melanoma = tested on: LOX IMVI melanoma
# M14 melanoma = tested on: M14 melanoma
# MALME-3M melanoma = tested on: MALME-3M melanoma
# MCF7 breast = tested on: MCF7 breast
# MDA-MB-231 breast = tested on: MDA-MB-231 breast
# MDA-MB-435 = tested on: MDA-MB-435
# MDA-MB-468 breast = tested on: MDA-MB-468 breast
# NCI-H226 lung = tested on: NCI-H226 lung
# NCI-H23 lung = tested on: NCI-H23 lung
# NCI/ADR-RES ovarian = tested on: NCI/ADR-RES ovarian
# OVCAR-3 ovarian = tested on: OVCAR-3 ovarian
# OVCAR-4 ovarian = tested on: OVCAR-4 ovarian
# OVCAR-5 ovarian = tested on: OVCAR-5 ovarian
# OVCAR-8 ovarian = tested on: OVCAR-8 ovarian
# PC-3 prostate = tested on: PC-3 prostate
# RPMI-8226 leukemia = tested on: RPMI-8226 leukemia
# RXF 393 renal = tested on: RXF 393 renal
# SF-268 CNS = tested on: SF-268 CNS
# SF-295 CNS = tested on: SF-295 CNS
# SF-539 CNS = tested on: SF-539 CNS
# SK-MEL-2 melanoma = tested on: SK-MEL-2 melanoma
# SK-MEL-28 melanoma = tested on: SK-MEL-28 melanoma
# SK-MEL-5 melanoma = tested on: SK-MEL-5 melanoma
# SK-OV-3 ovarian = tested on: SK-OV-3 ovarian
# SN12C renal = tested on: SN12C renal
# SNB-19 CNS = tested on: SNB-19 CNS
# T-47D breast = tested on: T-47D breast
# TK-10 renal = tested on: TK-10 renal
# UACC-62 melanoma = tested on: UACC-62 melanoma
# UO-31 renal = tested on: UO-31 renal
smiles,measurement,setting,value
COc1ccc2c(c1)c(-c1cc3nc(-c4cn(C)c5ncccc45)cc(N)n3n1)cn2C,GI50,786-0 renal,1740 nM
same,TGI,786-0 renal,3.2 µM
same,GI50,A498 renal,14.8 µM
same,TGI,A498 renal,34.8 µM
same,GI50,A549 NSCLC,3.37 µM
same,TGI,A549 NSCLC,13.8 µM
same,GI50,ACHN renal,2090 nM
same,TGI,ACHN renal,4.24 µM
same,GI50,BT-549 breast,1830 nM
same,TGI,BT-549 breast,3.77 µM
same,GI50,CAKI-1 renal,2190 nM
same,TGI,CAKI-1 renal,6.46 µM
same,GI50,DU-145 prostate,2880 nM
same,TGI,DU-145 prostate,8.26 µM
same,GI50,EKVX NSCLC,3.05 µM
same,TGI,EKVX NSCLC,12.5 µM
same,GI50,HCC-2998 colon,1810 nM
same,TGI,HCC-2998 colon,3.56 µM
same,GI50,HCT-116 colon,1670 nM
same,TGI,HCT-116 colon,3.13 µM
same,GI50,HCT-15 colon,1760 nM
same,TGI,HCT-15 colon,3.6 µM
same,GI50,HL-60(TB) leukemia,2170 nM
same,TGI,HL-60(TB) leukemia,5.1 µM
same,GI50,HOP-62 NSCLC,3.11 µM
same,TGI,HOP-62 NSCLC,13.3 µM
same,GI50,HOP-92 NSCLC,1610 nM
same,TGI,HOP-92 NSCLC,3.82 µM
same,GI50,HS 578T breast,2090 nM
same,TGI,HS 578T breast,6.27 µM
same,GI50,IGROV1 ovarian,2060 nM
same,TGI,IGROV1 ovarian,4.64 µM
same,GI50,KM12 colon,1970 nM
same,TGI,KM12 colon,4.32 µM
same,GI50,LOX IMVI melanoma,1790 nM
same,TGI,LOX IMVI melanoma,3.31 µM
same,GI50,M14 melanoma,1800 nM
same,TGI,M14 melanoma,3.44 µM
same,GI50,MALME-3M melanoma,1740 nM
same,TGI,MALME-3M melanoma,3.17 µM
same,GI50,MCF7 breast,2270 nM
same,TGI,MCF7 breast,5.91 µM
same,GI50,MDA-MB-231 breast,1840 nM
same,TGI,MDA-MB-231 breast,3.89 µM
same,GI50,MDA-MB-435,1720 nM
same,TGI,MDA-MB-435,3.35 µM
same,GI50,MDA-MB-468 breast,1820 nM
same,TGI,MDA-MB-468 breast,3.52 µM
same,GI50,NCI-H226 lung,2360 nM
same,TGI,NCI-H226 lung,6.92 µM
same,GI50,NCI-H23 lung,3.92 µM
same,TGI,NCI-H23 lung,17.9 µM
same,GI50,NCI/ADR-RES ovarian,3.62 µM
same,TGI,NCI/ADR-RES ovarian,23.5 µM
same,GI50,OVCAR-3 ovarian,1980 nM
same,TGI,OVCAR-3 ovarian,4.14 µM
same,GI50,OVCAR-4 ovarian,2130 nM
same,TGI,OVCAR-4 ovarian,5 µM
same,GI50,OVCAR-5 ovarian,4.76 µM
same,TGI,OVCAR-5 ovarian,18 µM
same,GI50,OVCAR-8 ovarian,3.17 µM
same,TGI,OVCAR-8 ovarian,> 100 µM
same,GI50,PC-3 prostate,2750 nM
same,TGI,PC-3 prostate,> 100 µM
same,GI50,RPMI-8226 leukemia,2120 nM
same,TGI,RPMI-8226 leukemia,5.44 µM
same,GI50,RXF 393 renal,1660 nM
same,TGI,RXF 393 renal,3.21 µM
same,GI50,SF-268 CNS,2640 nM
same,TGI,SF-268 CNS,8.65 µM
same,GI50,SF-295 CNS,1810 nM
same,TGI,SF-295 CNS,3.49 µM
same,GI50,SF-539 CNS,1650 nM
same,TGI,SF-539 CNS,3.06 µM
same,GI50,SK-MEL-2 melanoma,2830 nM
same,TGI,SK-MEL-2 melanoma,8.59 µM
same,GI50,SK-MEL-28 melanoma,1640 nM
same,TGI,SK-MEL-28 melanoma,3.02 µM
same,GI50,SK-MEL-5 melanoma,1690 nM
same,TGI,SK-MEL-5 melanoma,3.24 µM
same,GI50,SK-OV-3 ovarian,4.65 µM
same,TGI,SK-OV-3 ovarian,33 µM
same,GI50,SN12C renal,5.18 µM
same,TGI,SN12C renal,18.2 µM
same,GI50,SNB-19 CNS,3.98 µM
same,TGI,SNB-19 CNS,16.8 µM
same,GI50,T-47D breast,3.24 µM
same,TGI,T-47D breast,16.3 µM
same,GI50,TK-10 renal,4.25 µM
same,TGI,TK-10 renal,14.5 µM
same,GI50,UACC-62 melanoma,1610 nM
same,TGI,UACC-62 melanoma,3.02 µM
same,GI50,UO-31 renal,1850 nM
same,TGI,UO-31 renal,4.57 µM
